Data published in the OPERA property sets (Mansouri et al. 2018).

SMILES | melting point | boiling point | further results
NC[C@H]1O[C@H](O[C@H]2[C@H](O[C@@H]3O[C@H](CO)[C@@H](O)[C@H]3O)C(O)[C@H](N)C[C@@H]2N)[C@H](N)[C@@H](O)[C@@H]1O (stereo partly drawn) | 194 °C | – | –
c1ccc(-c2cc3ccccc3[nH]2)cc1 | 190 °C | – | ready biodegradability: not readily biodegradable
CN(C)c1cccc([N+](=O)[O-])c1 | 60.5 °C | 282 °C | –
CSc1ccc(C(=O)O)cc1 | 194 °C | – | –
NS(=O)(=O)c1ccc(SCCCO)cc1 | 117 °C | – | –
O=Cc1cccc(C=O)c1 | 89.5 °C | 246 °C | –
CC1CCC(C)C(C)C1C (stereo not drawn) | -75 °C | – | log10 vapour pressure (mmHg): 0.117
CCOC(=O)C(Br)CBr (stereo not drawn) | – | 214 °C | –
O=C(O)c1cc([N+](=O)[O-])ccc1Cl | 166 °C | – | –
CB(C)C | -162 °C | -20.2 °C | –
CC(C)(SC(=O)N1CCCCC1)c1ccccc1 | 39 °C | – | log10 vapour pressure (mmHg): -5.4
O=C(O)Cc1cccc(Br)c1 | 101 °C | – | –
O=C1CN(N=Cc2ccc([N+](=O)[O-])o2)C(=O)N1 | 263 °C | – | –
O=C1C=CC(=O)N1c1ccc(Cc2ccc(N3C(=O)C=CC3=O)cc2)cc1 | – | – | ready biodegradability: not readily biodegradable
C=CCOC(=O)C(=O)OCC=C | – | 217 °C | –
C=C[C@@](C)(O)CC/C=C(/C)CCC=C(C)C | – | 276 °C | –
c1ccc(-c2cccnc2)nc1 | – | 296 °C | –
C1CCC(CCCC2CCCCC2)CC1 | -17 °C | 292 °C | –
CC(Oc1ccccc1)C(=O)Cl (stereo not drawn) | – | 147 °C | –
C[C@@H]1C[C@H]2[C@@H]3C[C@H](F)C4=CC(=O)C=C[C@]4(C)[C@@]3(F)[C@@H](O)C[C@]2(C)[C@H]1C(=O)CO | 242 °C | – | –
CC(C)OC(=O)c1cc(-c2nn(C)c(C(F)(F)F)c2Br)c(F)cc1Cl | 80 °C | – | log10 vapour pressure (mmHg): -7.15
CC(O)COC(C)C (stereo not drawn) | – | 138 °C | –

SMILES | melting point | boiling point | further results
FC(F)=C(F)C(F)=C(F)F | -132 °C | 6 °C | –
CN(c1c(Br)cc(Br)cc1Br)c1c([N+](=O)[O-])cc([N+](=O)[O-])cc1C(F)(F)F | 150 °C | – | log10 vapour pressure (mmHg): -7.01
COc1cc(NC(=O)CC(C)=O)c(OC)cc1Cl | – | – | ready biodegradability: not readily biodegradable
CCC(C)CC(O)CC (stereo not drawn) | -91.2 °C | 172 °C | –
C[Si](Cl)(Cl)CCl | – | 122 °C | –
CC(=O)N(c1onc(C)c1C)S(=O)(=O)c1ccc(N)cc1 | 194 °C | – | –
CCOC(=O)C(CC)C(=O)OCC | – | 208 °C | –
CCOP(=S)(OCC)SCn1c(=O)oc2cc(Cl)ccc21 | 47.8 °C | – | log10 Koc (L/kg): 2.63
FC(F)=C(F)F | -142 °C | -75.9 °C | log10 vapour pressure (mmHg): 4.39
CCOC(=O)C(=O)Nc1ccccc1 | 65.5 °C | 280 °C | –
COc1ccc2c3c1O[C@H]1[C@@H](O)CC=C4[C@@H](C2)N(C)CC[C@]431 | 128 °C | – | –
N#Cc1ccncc1C#N | 80 °C | – | –
O=[N+]([O-])c1cc(Cl)c(Cl)cc1Cl | 57.5 °C | 288 °C | log10 BCF (fish): 1.84; log10 biotransformation half-life (days) (fish): -0.64
N#CC(O)C(Cl)(Cl)Cl (stereo not drawn) | 61 °C | – | –
Oc1nc(O)nc(O)n1 | 360 °C | – | ready biodegradability: readily biodegradable; log10 BCF (fish): -0.3
OC[C@H]1O[C@@H](Oc2ccc(O)cc2)[C@H](O)[C@@H](O)[C@@H]1O | 200 °C | – | –
COc1cc(OC)nc(NC(=O)NS(=O)(=O)c2ncccc2C(=O)N(C)C)n1 | 142 °C | – | log10 Koc (L/kg): 1.48
CC(C)c1cccc(C(C)C)c1N | -45 °C | 257 °C | –
Fc1cc2c(cc1F)Oc1cc(Br)c(Br)cc1O2 | 210 °C | – | log10 vapour pressure (mmHg): -7.74
CCCCCCCCCOC(C)=O | -26 °C | 210 °C | –
NC[C@H](O)C(=O)O | 235 °C | – | –
Sc1ccc(Br)cc1 | 73 °C | 230 °C | –

SMILES | melting point | boiling point | further results
CCOC(=O)COc1cccc2ccccc12 | 56.5 °C | – | –
O=[N+]([O-])c1c(Cl)cccc1-c1c[nH]cc1Cl | 124 °C | – | –
Clc1ccc2cc[nH]c2c1 | 90 °C | – | –
BrCc1ccccc1CBr | 95 °C | – | –
COc1cccc(C)c1C | 29 °C | 199 °C | –
CC(C)(C)OCCO | – | – | ready biodegradability: not readily biodegradable
CCC1COC(Cn2cncn2)(c2ccc(Cl)cc2Cl)O1 (stereo not drawn) | 84 °C | – | –
O=c1cccc[nH]1 | 108 °C | 280 °C | ready biodegradability: readily biodegradable
OCCN1CCN(CCCN2c3ccccc3Sc3ccc(Cl)cc32)CC1 | 97 °C | – | –
CC(=O)C(C)(C)C(C)=O | 19 °C | 173 °C | –
CC/C=C\CC1=C(C)CCC1=O | – | 258 °C | –
NC(=S)N=C(N)N | 172 °C | – | –
CCCCCCCCCCCCCCCCC#N | 34 °C | 349 °C | –
CC(CO)CO | -91 °C | 195 °C | log10 vapour pressure (mmHg): -1.68
CCCCCCCCCCCCCCCCOC(=O)C(C)O (stereo not drawn) | 41 °C | – | –
C=CC(C)CCC (stereo not drawn) | – | 83.9 °C | log10 vapour pressure (mmHg): 1.92
CC(=O)Nc1ccc(Cl)c(Cl)c1 | – | – | log10 Koc (L/kg): 2.34
O=CCCc1ccccc1 | – | 224 °C | –
CCCCCCCCO | -15.5 °C | 195 °C | log10 Henry constant (atm·m³/mol): -4.61; log10 Koa: 6.03; log10 Koc (L/kg): 1.56; log10 vapour pressure (mmHg): -1.1; ready biodegradability: readily biodegradable
CC1(C)[C@H](C(=O)O)CC[C@]1(C)C(=O)O | 189 °C | – | –
FCc1ccccc1 | -35 °C | 140 °C | log10 vapour pressure (mmHg): 0.832
NC(Cc1n[nH]c2ccccc12)C(=O)O (stereo not drawn) | 240 °C | – | –

SMILES | melting point | boiling point | further results
CC(=O)CC(c1ccccc1)c1c(O)c2ccccc2oc1=O (stereo not drawn) | – | – | log10 Koc (L/kg): 2.96; log10 vapour pressure (mmHg): -6.94
Cc1ccc(C(C)c2ccc(C)cc2)cc1 | – | 298 °C | –
O=c1cn[nH]c(=O)[nH]1 | 274 °C | – | –
COc1cc(C)c(/C=C/C(C)=C/C=C/C(C)=C/C(=O)O)c(C)c1C | 229 °C | – | –
CCC(Cl)(Cl)[N+](=O)[O-] | – | 145 °C | –
CC(=O)NC(Cc1ccccc1)C(=O)O (stereo in doubt) | 172 °C | – | –
Nc1cccc(S(=O)(=O)O)c1 | – | – | ready biodegradability: not readily biodegradable
CCC(C)C1(CC)C(=O)NC(=O)NC1=O (stereo not drawn) | 166 °C | – | –
CC(C)CCCCCCC=O | – | 197 °C | –
C[N+]1(C)CCCCC1 | – | – | log10 Koc (L/kg): 6
Cc1ncc[nH]1 | 144 °C | 267 °C | ready biodegradability: not readily biodegradable
COc1ccc(-c2ccc(OC)cc2)cc1 | 175 °C | – | –
CC(C)(C)c1cc(Cc2cc(C(C)(C)C)c(O)c(C(C)(C)C)c2)cc(C(C)(C)C)c1O | – | – | ready biodegradability: not readily biodegradable
CC1(C)CC=CC1 | – | 88 °C | –
CC[C@H]1CC[C@H](C)C1 | -108 °C | 121 °C | –
N#CCCN(CCC#N)c1ccc(N=Nc2c(Cl)cc([N+](=O)[O-])cc2Cl)cc1 | – | – | ready biodegradability: not readily biodegradable
FC(F)(F)CCBr | – | 63.5 °C | –
O=C1/C(=C/c2ccc(O)c(O)c2)Oc2cc(O)ccc21 | 303 °C | – | –
c1ccc2c(c1)ccc1nc3ccc4ccccc4c3cc12 | 216 °C | – | –
OCCc1ccccn1 | -7.8 °C | – | log10 Koc (L/kg): 1.45
CCC(C)C(CC)C(C)C (stereo not drawn) | – | 162 °C | –
